Results: US20220334101A1, “MODULATING EXTRACELLULAR MATRIX MOVEMENT” (Helmholtz Zentrum Muenchen - Deutsches Forschungszentrum …, priority 2019, published 2022)
“Also recorded” adds a separate entry of the source. Structures can show the parent of a compound that is named as a salt. Where two headings read alike, the source gives them in different places.

Columns and labels:
[1] = test system: fascia matrix; test: Fascia in vitro culture, live imaging of matrix movements (SHG); type: cell-based, mouse; conditions: C57BL6/J neonate fascia biopsy, 100 μM Etoposide
Procedure: Two in vitro systems were used. To visualize the changes in matrix architecture in real time, 2 mm-diameter biopsies were excised from P0 C57BL/6J neonates and processed for live imaging (SCAD assay, Patent Application No. PLA17A13). To determine the effectiveness of the DT treatment, muscle+fascia was manually separated from the rest of the skin in the chimeric grafts experiments and incubated with DT at different concentrations for 1 h at ambient temperature. […]
Histological sections were imaged using a using a ZEISS AxioImager.Z2m (Carl Zeiss). […] Second harmonic generation signal and green auto-fluorescence as a reference were recorded every hour. […]
Histological images were analyzed using ImageJ. For quantification of labeled cells in the fate mapping experiments, the Inventors manually defined the wound, surrounding dermis, and adjacent fascia areas. […] The number of labeled cells in each area was determined by quantifying the particles that were double-positive for DAPI and for the desired label (eg. Dil, GFP, etc) channels. The coverage of the labeled matrix in the wound area was determined by quantifying the area that was double-positive for the labeled matrix and the COLLAGEN I+III+VI staining signal. […] Scar length was quantified from randomly selected sections taken from the middle of the scar using as a reference the two flanking hair follicles. […]

[2] = test system: skin-fascia explants; test: Scar-in-a-dish (SCAD) ex vivo skin-fascia explant assay, screening of Prestwick chemical library; type: cell-based, mouse; conditions: molecules of table 1 named as inhibitors of ECM movement
Text: Post born Day 0 (P0) neonates of C57BL/6J wild type mouse were first sacrificed by decapitation. Then dorsal back skin was isolated to make 2 mm full thickness biopsies (0 2 mm, Stiefel) that included the epidermis, dermis and deep subcutaneous fascia layers. The whole skin tissue explant system is termed as scar-in-a-dish (SCAD) assay (Patent Application no. PLA17A13). The SCAD tissue was maintained in DMEM/F12 cell culture medium (Life Technologies) supplemented with 10% FBS (Life Technologies), 1% non-essential amino acid (Thermo Fisher), 1% Glutamax (Thermo Fisher), 1% penicillin and streptomycin (Thermo Fisher) in a 37° C. incubator supplied with […] and 5% CO2. Medium was changed every other day until day 5 when SCADs were collected and fixed for histology analysis. To be noticed, the excised skin was submerged […] in culture media, which confined the scar-prone fibroblasts to the explant and discouraged their adherence to the tissue culture plate.
The PCL provides an additional advantage as all chemicals are of stable physicochemical properties, show a high range of chemical diversity, and are with known bioavailability and safety data in humans. All these information helps to reduce the probability of screening low-quality hits and save the costs of preliminary screening process.
In order to accommodate to medium scale screening approach, the Inventors adapted the SCAD explant system into 96-well plate (Falcon) formats, with each well contained one biopsy. […] Plate and liquid handling were performed using a high-throughput screening platform system composed of a Sciclone G3 Liquid Handler from PerkinElmer (Waltham, Mass., USA). On Day 0 tissues were treated either with the respective compound (1 mM stock solution) dissolved in 100% dimethyl sulfoxide (DMSO, Carl Roth) or DMSO alone. 0.5 μl of compounds/DMSO were transferred with a 96-array head to 200 μl DMEM/F12 medium per well to keep the final DMSO concentrations at […]. Tissues were then incubated (37° C.; 5% CO2) for 72 h prior to a second round of compound treatment, which was performed by exchanging cell culture medium per well and transferring […] of compounds/DMSO into the fresh medium. After an incubation time of another 48 h (37° C.; 5% CO2) the tissues were harvested and fixed for histological processing and imaging.
Briefly, the Inventors excised 2-mm full thickness skin biopsies that included epidermis, dermis, and deep subcutaneous fascia layers from mouse backs (see Methods). Skin-fascia explants were submerged fascia-side up in culture media, to confine scar-prone fibroblasts to the explant and discourage their adherence to the tissue culture plate.
The Prestwick library has selected a diverse array of chemicals with strong physicochemical properties, with known bioavailability and clinical safety data. The library is an ideal place to start screening as it covers all major therapeutic chemical classes such as central nervous system, cardiovascular system, metabolism, and infectious diseases.

[3] = test system: fascia fibroblasts; test: Fascia invasion assay (ex vivo fascia 3D Matrigel culture); type: cell-based, mouse
Procedure: In order to observe the dynamic changes of fascia fibroblasts, the inventors isolated dorsal skin from P4 to P6 neonates of En1^Cre; R26^mTmG mouse lines. Cre positive neonates from this double transgenic mouse line were detected by green fluorescent signal in dorsal skin with a Leica M205 FA stereo microscope. Matrigel was prepared by diluting the stock aliquots with DMEM/F12 medium to a concentration of 6 mg/ml. Then 150 μl prepared gel was added in the center of a 35 mm cell culture dish (Ibidi). 4 mm biopsies were made from the dorsal skin and fascia tissues were then isolated from the dorsal skin tissues. Isolated fascia tissues were then embedded into the gel and were allowed to be solidified for one hour at 37° C. Then the tissue-gel system was maintained in DMEM/F12 medium (Life Technologies) supplemented with 10% FBS (Life Technologies), 1% non-essential amino acid (Thermo Fisher), 1% Glutamax (Thermo Fisher), 1% penicillin and streptomycin (Thermo Fisher) in a 37° C. incubator supplied with 95% O2 and 5% CO2. Medium was changed every other day until day 4 when tissues were collected and fixed. For fixation with Matrigel system, tissues were fixed in 2% paraformaldehyde (VWR) with 0.1% glutaraldehyde (Sigma) for 1 hour and then washed three times with phosphate buffered saline (PBS, Life Technologies) and stored in PBS at 4° C.
Fascia tissues were recorded everyday by a brightfield microscope to check the invasion and contraction state of the tissues. The invasion index was calculated with the following formula: Invasion index=(SD4−SD0)/SD0
SD4 and SD0 represent tissue size (including the migrated area) on Day 4 and Day 0, respectively. The contraction index was calculated with the following formula: Contraction index=(TD0−TD4)/TD0
TD4 and TD0 represent original tissue size (excluding the migrated area) on Day 4 and Day 0 respectively.
The Inventors isolated fascia from back-skin of En1^Cre; R26^mTmG double-transgenic mice, separately incubated whole fascia explants with 26 small molecules, and measured the invasion index (Si)=(SD4−SD0)/SD0 (see Methods) as a proxy measure of sprouting and reticulation.

[4] = test system: fascia fibroblasts; test: 3D staining of fascia tissue for αSMA, Ki67 and caspase 3; type: cell-based, mouse; conditions: fascia tissue in Matrigel
Procedure: (§1) In order to characterize the properties of fascia samples cultured in Matrigel, the Inventors fixed the whole gel (with fascia tissue embedded inside) and conducted 3D staining. Samples were immersed overnight in PBSGT (lx PBS implemented with 0.2% gelatin (Sigma), 0.5% Triton X-100 (Sigma) and 0.01% thimerosal (Sigma)) at room temperature and incubated with primary antibodies diluted in PBSGT for three days at room temperature. The tissues were then washed three times with PBSGT for at least 30 min each time and incubated with secondary antibodies diluted in PBSGT for one day. Finally, tissues were rinsed three times with PBSGT and stored in PBS at 4° C. until imaging. 3D whole mount imaging was conducted with a Leica SP8 multi-photon microscope.
(§2) Primary and secondary antibodies applied in 3D staining: αSMA (ab21027, Abcam), Ki 67 (ab16667, Abcam), Cleaved Caspase-3 (9661S, Cell signalling), Gli1 (ab49314, Abcam), Donkey anti rabbit AF647 (A-31573, Life Technologies), Donkey anti goat AF647 (A-21447, Life Technologies).
To better understand the molecular basis of reticulations that leads to scarring, the Inventors took a closer look at the molecular targets of the ‘hit’ chemicals. […] Thiostrepton reduces the binding activity of the transcriptional factor FoxM1; a positive regulator of Gli1 signaling (REF). Whereas Itraconazole inhibits Gli nuclear activity through stopping SMO moving to the membrane of primary cilia and thus inhibiting the pathway (James et al., 2010). […] The 3rd anti-scar drug Fluvastatin inhibits 3-Hydroxy-3-methylglutaryl-coenzyme A (HMG-CoA) reductase, a rate-limiting enzyme in cholesterol biogenesis that is required for hedgehog pathway activation (Huang P et al., 2016; Giovanni Luchetti et al., 2016). […] Thus, the Inventors conclude that anti-fibrosis chemicals converge on SHH pathway signaling to modulate fibroblast sprouting and reticulations, needed to mobilize fascia jelly into sites of injury.
The hedgehog pathway was also reported to induce proliferation and to depress apoptosis.

[5] = test system: fascia matrix mobilization into wounds; test: Fascia labelling study: fascia mobilization into excisional back-skin wounds in live mice; type: in vivo, mouse; conditions: 75 μl of 250 μM three times a week, wounds collected Day 7
Procedure: For the fascia labelling study, 2 mg/ml NHS-fluorescein dye was subcutaneously injected into dorsal skin of wildtype mice at 4 days and 2 days prior to the surgery. After labelling, excisional wounds were made in mouse back-skin and treated with 75 μl saline diluted chemical solutions with a final concentration of 250 μM three times a week from the surgery day onwards. Scar samples were collected on D7.
Having discovered sprouting and reticulations are altered by the compounds, the Inventors went on to check how these effect fascia mobilization in physiologic wounds in live animals. First, the Inventors labelled the subcutaneous fascia layer with a FITC-NHS ester dye in animals, then made full thickness excisional wounds on the backs of fascia-labelled mice, and followed wound healing under the presence of a […] injection regimen using the above 3 separate compounds. Skin wounds were collected at Day 7 after wounding to determine the extent of fascia mobilization and also at 21 days post-injury to determine final wound size and scar severity. In DMSO control groups, the fascia matrix jelly was mobilized into the wound from all sides of the wound, and wounds at 7 days were completely clogged with large patches of labelled matrix jelly.

[6] = test system: scars of splinted back-skin wounds; test: In vivo splinted wound model (scar formation); parameters: species or system mouse; conditions: 75 μl per wound of 250 μM intra-dermally, day 21, trichrome staining
[7] = test system: Gli1; test: 3D staining of fascia tissue for Gli1 (hedgehog pathway); type: cell-based, mouse; conditions: fascia tissue in Matrigel
Procedure: as §1, §2
To better understand the molecular basis of reticulations that leads to scarring, the Inventors took a closer look at the molecular targets of the ‘hit’ chemicals. […] Thiostrepton reduces the binding activity of the transcriptional factor FoxM1; a positive regulator of Gli1 signaling (REF). […]

[8] = listed as Fluvastatin, sodium salt

Row | SMILES | fascia matrix movements (contraction) [1] | phenotype as inhibitor of ECM movement [2] | inter-cell connectivity, sprouting and reticulations within the fascia [3] | cell death (caspase 3) [4] | cell proliferation activity (Ki67) [4] | fascia (matrix jelly) mobilization into wounds [5] | scar size / scarring of wounds [6] | inter-cell connectivity, sprouting and reticulations within the fascia [3, 8] | inter-cell connectivity, sprouting and reticulations within the fascia ([3]; sodium salt) | Gli1 protein expression [7] | αSMA expression / activation into myofibroblasts [4] | fascia (matrix jelly) mobilization into wounds [5, 8] | fascia (matrix jelly) mobilization into wounds ([5]; sodium salt)
1 | COc1cc([C@@H]2c3cc4c(cc3[C@@H](O[C@@H]3O[C@@H]5CO[C@@H](C)O[C@H]5[C@H](O)[C@H]3O)[C@H]3COC(=O)[C@H]23)OCO4)cc(OC)c1O [Etoposide] | no effect; also recorded: clear contraction of the fascial matrix in culture in absence of cell proliferation | – | – | – | – | – | – | – | – | – | – | – | –
2 | C=C(NC(=O)C(=C)NC(=O)c1csc(C2=N[C@@H]3c4csc(n4)[C@H]4NC(=O)c5csc(n5)[C@H]([C@](C)(O)[C@@H](C)O)NC(=O)[C@H]5CSC(=N5)/C(=C/C)NC(=O)[C@H]([C@@H](C)O)NC(=O)c5csc(n5)[C@]3(CC2)NC(=O)[C@H](C)NC(=O)C(=C)NC(=O)[C@H](C)NC(=O)[C@H]([C@@H](C)CC)N[C@@H]2C=Cc3c([C@H](C)O)cc(nc3[C@H]2O)C(=O)O[C@@H]4C)n1)C(N)=O [Thiostrepton] | – | anti-fibrotic phenotype | completely inhibited sprouting and reticulations | increased | decreased | reduced fascia jelly movements; also recorded: inhibited | reduced scaring of wounds | – | – | – | – | – | –
3 | CC(C)n1c(/C=C/C(O)CC(O)CC(=O)O)c(-c2ccc(F)cc2)c2ccccc21 (centres unmarked) [Fluvastatin sodium salt] | – | anti-fibrotic phenotype | – | increased | decreased | – | reduced scaring of wounds | intact cell-cell connection and network formation | completely inhibited sprouting and reticulations | weakly expressed | cells can be activated into myofibroblast | completely inhibited | reduced fascia jelly movements
